Values quoted from earlier work as cited in US20190076442A1, “PRESERVATIVE FREE PHARMACEUTICAL COMPOSITION FOR OPHTHALMIC ADMINISTRATION CONTAINING BIMATOPROST AND TIMOLOL” (PHARMATHEN S.A., priority 2016, published 2019).
Where a name gives a salt, the structure may show the parent alone.

Solubility in chloroform (chloroform) | Solubility in cyclohexane (cyclohexane) | Solubility in ethanol (ethyl alcohol) | Solubility in ether (ether) | Solubility in methanol (methanol) | Solubility in propylene glycol (propylene glycol) | Solubility in water | SMILES
sparingly soluble | insoluble | soluble | insoluble | soluble | sparingly soluble | soluble | CC(C)(C)NC[C@H](O)COc1nsnc1N1CCOCC1 [Timolol maleate]
 |  | very soluble |  |  |  | slightly soluble | CCNC(=O)CCC/C=C\C[C@@H]1[C@@H](/C=C/[C@@H](O)CCc2ccccc2)[C@H](O)C[C@@H]1O [Bimatoprost]
